By EC50 is commonly meant the midpoint of the concentration-response curve. By IC50 is commonly meant the concentration needed to halve the response being measured.

Consider 72 compounds from PubChem BioAssay AID179 (DTP/NCI, 2004).

Activity calls are given as the source filed them.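 How the source made its calls: active means compounds giving half or more protection of infected cells from virus-caused growth loss, again on retest; inactive means the rest.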 Where only a bound is given, the exact number is not on record here.

The subject of this assay is CEM cells HIV-1 protection, formazan growth assay. Briefly: NCI AIDS Antiviral Assay. Particulars: for IC50: measured here: growth of uninfected CEM cells. A digest of the protocol:
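Steps: treat uninfected and HIV-1-infected human CEM cells at five drug levels; quantify growth by soluble formazan; retest any compound reaching 50% protection; classify actives from the retest.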

Regarding `Cc1nc2c(nc1Cl)nc(Oc1ccc(Cl)cc1)c1ccccc12`, the EC50 is more than 28.2 µM and the half-inhibitory concentration (IC50) is more than 28.2 µM.

As for `COc1cc([C@@H]2OC(=O)C3C2C(=O)O[C@H]3c2ccc(O)c(OC)c2)ccc1O` (some centres undefined), the result was inactive.

Take `Cc1ccc2c(c1)P1c3cc(C)ccc3SP1S2` (centres undefined): the EC50 is more than 12.3 µM and the IC50 was more than 12.3 µM.

Consider `CN(C)c1cc(CNCCS)nc(CNCCS)c1`, for which the EC50 is more than 200 µM and the IC50 amounted to 3.47 µM.

For the compound `c1cc2c3c(c1)ncn3C[C@@H]1CCCN1C2`, the EC50 was more than 295 µM and the concentration for half-maximal inhibition (IC50) was more than 295 µM.

Consider `O=c1oc2ccccc2c(O)c1C(c1ccc2ccccc2c1)c1c(O)c2ccccc2oc1=O`, for which the EC50 is more than 200 µM and the IC50 is 38.9 µM.

Turning to `COc1cc(C(=O)Nc2nnc(S(N)(=O)=O)s2)cc(OC)c1OC`, the EC50 is more than 200 µM and the IC50 is more than 200 µM.

Turning to `O=S(=O)(O)CC(O)CNC(CO)(CO)CO` (centres undefined), the EC50 is more than 200 µM and the IC50 was more than 200 µM.

On to `Cc1cn(C2CC(CCN(O)CC3OC(n4cc(C)c(=O)[nH]c4=O)CC3O[Si](C)(C)C(C)(C)C)C(CO[Si](C)(C)C(C)(C)C)O2)c(=O)[nH]c1=O` (centres undefined), for which the EC50 was more than 200 µM and the IC50 amounted to 11.5 µM.

`COc1ccc(/C=C/C(=O)c2c(-c3ccccc3)nn(C)c(=O)c2N2CCCC2)cc1`: the EC50 is more than 67.6 µM and the IC50 is more than 67.6 µM.

Regarding `N/N=C(N)/C(N)=N/N`, the result was inactive.

For the compound `CC1=NC2C(=O)N(C)C(=O)N(C)C2n2c(O)ccc21` (centres undefined), the EC50 was more than 2 µM and the IC50 was more than 2 µM.

Regarding `CCCC(=O)NC(Nc1ccc(S(=O)(=O)Nc2nc(C)cc(C)n2)cc1)(C(F)(F)F)C(F)(F)F`, the EC50 is more than 200 µM and the IC50 is more than 200 µM.

For the compound `CCCCCCCCCCSS(=O)(=O)c1ccc(C)cc1`, the EC50 is more than 21.9 µM and the half-maximal inhibitory concentration (IC50) was 9.55 µM.

As to `O=c1[nH]c(-n2[nH]c3c(c2=O)CCCC3)nc(O)c1-c1ccccc1`, the EC50 was more than 200 µM and the IC50 was more than 200 µM.

For `CCN(CC)CCN.[O-][Cl+3]([O-])([O-])[O-].[Pd+2].c1ccc(-c2ccccn2)nc1`, the EC50 is more than 200 µM and the IC50 came out at 32.4 µM.

`CN(C)CCCN=C(N)N`: the EC50 is more than 200 µM and the IC50 was more than 200 µM.

On to `CSc1nc(Cl)c2c(n1)Sc1nc3cc4c(cc3n1C2O)OCO4` (centres undefined), for which the EC50 was more than 100 µM and the 50% inhibitory concentration (IC50) came out at 0.525 µM.

For the compound `O=C(NC1=C(Cl)C(=O)c2ccccc2C1=O)C(=O)c1c(O)c2ccccc2oc1=O`, the EC50 was more than 117 µM and the concentration for half-maximal inhibition (IC50) was more than 117 µM.

As for `COCCCCCCCCCCCC(=O)OCC1OC(n2cc(C)c(=O)[nH]c2=O)CC1F` (centres undefined), the half-maximal effective concentration (EC50) was 0.0112 µM and the IC50 was 0.2 µM.

As for `O=C1CC(O)(c2ccccc2)C(c2ccccc2)=C1c1ccccc1` (centres undefined), the outcome was inactive.

On to `COC(=O)C1CC(C(=O)OC)c2nc3cc(C)ccc3nc21` (centres undefined), for which the EC50 was more than 437 µM and the 50% inhibitory concentration (IC50) is more than 437 µM.

Take `CC(C)(C)C1CCC2c3c([nH]c4ccccc34)C3C(=O)N(c4ccccc4[N+](=O)[O-])C(=O)C3C2C1` (centres undefined): the EC50 was more than 200 µM and the concentration for half-maximal inhibition (IC50) was 36.3 µM.

Consider `O=C1c2ccccc2C(=O)c2c1ccc1c2N=C(c2ccc(Br)cc2)CC(c2cccc3ccccc23)N1` (centres undefined), for which the EC50 is more than 64.6 µM and the IC50 was more than 64.6 µM.

In the case of `CCN(CC)C(=O)c1cccc2cccc(OC)c12`, the result was inactive.

On to `NNC(=O)C(=O)N/N=C(\CCCC(=O)Nc1ccc(Cl)cc1)CC(=O)c1ccc(F)cc1`, for which the EC50 was more than 269 µM and the concentration for half-maximal inhibition (IC50) is more than 269 µM.

In the case of `COc1cc2c(c(OC)c1OC)-c1ccc(SC)c(=O)cc1C(NC=O)CC2` (centres undefined), the EC50 is more than 0.002 µM and the half-maximal inhibitory concentration (IC50) was determined as 0.0011 µM.

On to `Cc1c(Cc2ccccc2)n(C(C)OCCN2C(=O)C=CC2=O)c(=O)[nH]c1=O` (centres undefined), for which the EC50 is more than 200 µM and the half-inhibitory concentration (IC50) stood at 9.77 µM.

In the case of `CC[C@H]1CN2CCc3cc(OC)c(OC)cc3[C@@H]2C[C@@H]1C[C@H]1NCCc2c1[nH]c1ccc(O)cc21`, the outcome was inactive.

Consider `C=CC(C1=CC(=O)C(OC)=CC1=O)c1ccc(OC)cc1` (centres undefined), for which the result was inactive.

Take `C1CSCCSCCCSCCSCCCSCCSC1`: the EC50 was more than 200 µM and the IC50 was more than 200 µM.

Regarding `CC(=Nc1cccc(Cl)c1)c1ccncc1`, the outcome was inactive.

On to `CCc1ccccc1NC(=O)Nc1cc(C)ccn1`, for which the EC50 was more than 200 µM and the half-inhibitory concentration (IC50) was 24 µM.

With `COC1/C=C/OC2(C)Oc3c(C)c(O)c4c(O)c(c(/C=N/N5C(C)CN(Cc6cccc(C#N)c6)CC5C)c(O)c4c3C2=O)NC(=O)/C(C)=C\C=C\C(C)C(O)C(C)C(O)C(C)C(OC(C)=O)C1C` (centres undefined), the EC50 was more than 200 µM and the IC50 amounted to 6.46 µM.

In the case of `COc1nc(=O)n(C2CC(F)C(CO)O2)cc1C` (centres undefined), the EC50 is 79.4 µM and the half-inhibitory concentration (IC50) was more than 200 µM.

Turning to `C#Cc1ccccc1N1C(=O)C=CC1=O`, the EC50 was more than 251 µM and the IC50 is more than 251 µM.

Turning to `Brc1cc2nn(-c3ccccc3)nc2c2nonc12`, the EC50 was more than 200 µM and the half-maximal inhibitory concentration (IC50) was more than 200 µM.

In the case of `COc1ccc(C[C@@H]2CN(C(=O)c3ccccc3)[C@H](Cc3ccc(O)cc3)CN2C(=O)c2ccccc2)cc1Br`, the EC50 was more than 200 µM and the concentration for half-maximal inhibition (IC50) amounted to 126 µM.

On to `Clc1ccc(-c2nn3c(CCCCCCCCc4nnc5sc(-c6ccc(Cl)cc6)nn45)nnc3s2)cc1`, for which the EC50 was more than 200 µM and the IC50 stood at 19.1 µM.

Consider `Cc1nc(Nc2ccccc2[N+](=O)[O-])sc1C(=O)CC(=O)C(=O)Nc1c(C(C)C)cccc1C(C)C`, for which the EC50 is more than 200 µM and the concentration for half-maximal inhibition (IC50) was more than 200 µM.

As to `CCc1c2c([nH]c(=S)c1C#N)CCC2`, the EC50 is 61.7 µM and the IC50 was more than 200 µM.

Take `Nc1cc2ncnn2c(SCC(=O)N/N=C/C(Br)=C\c2ccccc2)n1`: the EC50 is more than 200 µM and the half-inhibitory concentration (IC50) amounted to 7.94 µM.

For the compound `c1ccc2c(c1)CC1COc3ccccc3C1O2` (centres undefined), the EC50 is more than 200 µM and the IC50 is 70.8 µM.

Take `CCOC(=O)N1CCN(C=S)CC1`: the EC50 was more than 1230 µM and the IC50 was more than 1230 µM.

With `N#C[C@H](c1nc2ccccc2s1)c1nc2ccccc2nc1Cl`, the EC50 is more than 100 µM and the IC50 was more than 100 µM.

As to `COC(=O)C12CCCN1CCC2`, the half-maximal effective concentration (EC50) was 26.3 µM and the half-inhibitory concentration (IC50) is more than 200 µM.

As to `Cc1cc2c(O)c(c1)CN(CC(=O)O)Cc1cc(C)cc(c1O)CN(CC(=O)O)Cc1cc(C)cc(c1O)CN(CC(=O)O)C2`, the EC50 is more than 200 µM and the IC50 is more than 200 µM.

Consider `NC1=NN(c2ccccc2)C(=O)C1C(=O)C(=O)NC1C2CC3CC(C2)CC1C3` (centres undefined), for which the EC50 is more than 13.8 µM and the 50% inhibitory concentration (IC50) is more than 13.8 µM.

For `CCOC(=O)c1ccc(CS(=O)(=O)c2ccccc2)c([N+](=O)[O-])c1`, the EC50 was more than 102 µM and the half-inhibitory concentration (IC50) was more than 102 µM.

On to `O=C(CC(C(=O)c1cccs1)c1ccsc1)c1ccco1` (centres undefined), for which the EC50 was more than 200 µM and the IC50 stood at 32.4 µM.

Take `COc1ccc(Cc2c(N)[nH]c(=O)[nH]c2=O)cc1`: the EC50 was more than 200 µM and the IC50 was more than 200 µM.

In the case of `CC1=CC(=O)C(=CN2C(=O)/C(=C\c3cccnc3)NC2=S)C(=O)O1`, the EC50 is more than 200 µM and the IC50 was more than 200 µM.

`Nc1nc(NCCOCP(=O)(O)O)c([N+](=O)[O-])c(=O)[nH]1` gave a half-maximal effective concentration (EC50) of 178 µM and an IC50 of more than 200 µM.

Consider `COc1cccc(/C=N/NC(=O)c2ccccc2[O-])c1[O-].[OH3+].[Pd+2]`, for which the EC50 is more than 200 µM and the IC50 is 1.26 µM.

Consider `CC1(Cl)C(=O)NN=C1c1ccc([N+](=O)[O-])cc1` (centres undefined), for which the EC50 is more than 200 µM and the IC50 is 17.8 µM.

With `Cc1cc2nc3c(=O)n(C)c(=O)nc-3n(-c3ccc(Cl)cc3)c2cc1C`, the result was inactive.

Turning to `Nc1c(C(=O)O)[nH]c(=O)[nH]c1=S`, the EC50 was more than 200 µM and the IC50 was 95.5 µM.

On to `CC(C)(C)c1cc(Nc2ccc([N+](=O)[O-])cc2[N+](=O)[O-])cc(C(C)(C)C)c1O`, for which the EC50 was more than 13.5 µM and the half-maximal inhibitory concentration (IC50) is more than 13.5 µM.

Take `O=C(O)CCCCC[n+]1ccccc1`: the EC50 is more than 200 µM and the half-maximal inhibitory concentration (IC50) was more than 200 µM.

Take `Fc1ccc(CN2COc3c(ccc4cccnc34)C2)cc1`: the EC50 is more than 200 µM and the 50% inhibitory concentration (IC50) worked out at 34.7 µM.

In the case of `COc1ccc(/C(CCl)=C(\Nc2ccccc2)c2ccc(OC)c(OC)c2)cc1OC`, the EC50 was more than 200 µM and the IC50 is more than 200 µM.

For the compound `Cc1ccc(S(=O)(=O)n2oc(=O)c(-c3ccccc3)c2N)cc1`, the EC50 was more than 200 µM and the IC50 was 55 µM.

Regarding `COCCN1C(=O)C2c3[nH]c4ccccc4c3C3CCC(C(C)(C)C)CC3C2C1=O` (centres undefined), the EC50 was more than 200 µM and the IC50 was 39.8 µM.

In the case of `O=C(NC1=NC2C=CC([N+](=O)[O-])=CC2S1)C(=O)Nn1c(=S)[nH]c2ccccc2c1=O` (centres undefined), the EC50 is more than 81.3 µM and the IC50 came to 74.1 µM.

Take `NC1=NS(=O)(=O)Nc2nc(-c3cccs3)[nH]c21`: the EC50 was more than 200 µM and the IC50 is more than 200 µM.

Turning to `COc1cc(C[C@@]2(O)C(=O)OCC2Cc2ccc(OC)c(OC)c2)ccc1O` (some centres undefined), the EC50 was more than 200 µM and the half-maximal inhibitory concentration (IC50) stood at 36.3 µM.

Regarding `CCCCCCCCCCCc1noc2c1C(=O)C(O)CC2` (centres undefined), the outcome was inactive.

`CCCCCCCCCCCCCC/C(=C/OCC[N+](C)(C)C)OC(C)=O` (tested in a mixture with another compound): the EC50 is more than 200 µM and the half-inhibitory concentration (IC50) was determined as 0.355 µM.

Regarding `CCOC(=O)Nc1cc2c(c(N)n1)N=C(c1ccccc1)CO2`, the EC50 was more than 16.6 µM and the IC50 was found to be 0.0933 µM.

Turning to `O=C(O)C12C3CCC(O3)C1(C(=O)O)C1CCC2O1` (centres undefined), the EC50 is more than 200 µM and the IC50 was more than 200 µM.

On to `CC1(C)OCC2OC3(CO)NP(=O)(N(CCCl)CCCl)OC3C2O1` (centres undefined), for which the outcome was inactive.

As for `CC1(Cl)C(=O)NC(=O)N(C2CC(N=[N+]=[N-])C(CO)O2)C1N=[N+]=[N-]` (centres undefined), the EC50 was 3.89 µM and the half-maximal inhibitory concentration (IC50) is 282 µM.
